How the values were obtained:
Phakopsora pachyrhizi = experiment: Fungicidal activity, soybean leaf disc preventative (Asian soybean rust); type: in vivo; settings: foliar, 200 ppm in the applied formulation, soybean leaf disks, compared to untreated control, 12 to 14 days after application, read-out: disease control
Description: Leaf disks or leaf segments of various plant species are cut from plants grown in a greenhouse. The cut leaf disks or segments are placed in multiwell plates (24-well format) onto water agar. The leaf disks are sprayed with a test solution before (preventative) or after (curative) inoculation. Compounds to be tested are prepared as DMSO solutions (max. 10 mg/ml) which are diluted to the appropriate concentration with 0.025% Tween20 just before spraying. The inoculated leaf disks or segments are incubated under defined conditions (temperature, relative humidity, light, etc.) according to the respective test system. A single evaluation of disease level is carried out 3 to 14 days after inoculation, depending on the pathosystem. Percent disease control relative to the untreated check leaf disks or segments is then calculated.
Soybean leaf disks are placed on water agar in multiwell plates (24-well format) and sprayed with the formulated test compound diluted in water. One day after application leaf discs are inoculated by spraying a spore suspension on the lower leaf surface. After an incubation period in a climate cabinet of 24-36 hours in darkness at 20° C. and 75% rh leaf disc are kept at 20° C. with 12 h light/day and 75% rh. The activity of a compound is assessed as percent disease control compared to untreated when an appropriate level of disease damage appears in untreated check leaf disks (12 to 14 days after application).
The following compounds at 200 ppm in the applied formulation give at least 80% disease control in this test when compared to untreated control leaf disks under the same conditions, which show extensive disease development.

[1] = test system: Puccinia recondita f. Sp. Tritici; experiment: Fungicidal activity, wheat leaf disc preventative (brown rust); type: in vivo; settings: foliar, 200 ppm in the applied formulation, wheat leaf segments cv. Kanzler, compared to untreated control, 7 to 9 days after application, read-out: disease control
How it was run: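 Preventative leaf-segment test: spray application of diluted formulated compound on wheat cv. Kanzler, spore inoculation after 1 day. Percent control relative to untreated segments rated 7 to 9 days post-application, with incubation at 19° C, 75% relative humidity, 12 h photoperiod.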

[2] = test system: Puccinia recondita f. Sp. Tritici; experiment: Fungicidal activity, wheat leaf disc curative (brown rust); type: in vivo; settings: foliar, 200 ppm in the applied formulation, wheat leaf segments cv. Kanzler, curative (applied 1 day after inoculation), compared to untreated control, 6 to 8 days after application, read-out: disease control
How it was run: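 Curative leaf-segment test, cv. Kanzler: spore inoculation, dark storage 19° C/75% RH, compound spray 1 day post-inoculation. Then 12 h light/12 h dark, 19° C, 75% RH. Read-out: % disease control vs untreated check, 6–8 d after application.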

[3] = test system: Glomerella lacenarium (Colletotrichum lacenarium); experiment: Fungicidal activity, liquid culture, cucumber preventative (anthracnose); type: cell-based; settings: 20 ppm in the applied formulation, liquid culture in PDB, inhibition of growth measured photometrically 3 to 4 days after application, compared to untreated control, read-out: disease control
How it was run: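 PDB broth seeded with cryo-stored conidia, added onto compound (DMSO solution) in 96-well plates; 24° C.; photometric growth read at 3–4 d post-application; % inhibition vs untreated check.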

COCCC(=O)N(Cc1ccc(-c2noc(C(F)(F)F)n2)s1)OC [Compound 1.11, N,3-dimethoxy-N-[[5-[5-(trifluoromethyl)-1,2,4-oxadiazol-3-yl]-2-thienyl]methyl]propanamide]
≥ 80%: pest or weed control at 200 ppm (Phakopsora pachyrhizi) | pest or weed control at 200 ppm [1] | pest or weed control at 200 ppm [2] | inhibition of growth at 20 ppm [3]

CCC(=O)N(Cc1ccc(-c2noc(C(F)(F)F)n2)s1)OC [Compound 1.12, N-methoxy-N-[[5-[5-(trifluoromethyl)-1,2,4-oxadiazol-3-yl]-2-thienyl]methyl]propanamide]
≥ 80%: pest or weed control at 200 ppm (Phakopsora pachyrhizi) | pest or weed control at 200 ppm [1] | pest or weed control at 200 ppm [2] | inhibition of growth at 20 ppm [3]

CON(Cc1ccc(-c2noc(C(F)(F)F)n2)s1)C(=O)C1CCC1 [Compound 1.13, N-methoxy-N-[[5-[5-(trifluoromethyl)-1,2,4-oxadiazol-3-yl]-2-thienyl]methyl]cyclobutanecarboxamide]
≥ 80%: pest or weed control at 200 ppm (Phakopsora pachyrhizi) | pest or weed control at 200 ppm [1] | pest or weed control at 200 ppm [2] | inhibition of growth at 20 ppm [3]

CON(Cc1ccc(-c2noc(C(F)(F)F)n2)s1)C(=O)C1CC1C (stereo not drawn) [Compound 1.14, N-methoxy-2-methyl-N-[[5-[5-(trifluoromethyl)-1,2,4-oxadiazol-3-yl]-2-thienyl]methyl]cyclopropanecarboxamide]
≥ 80%: pest or weed control at 200 ppm (Phakopsora pachyrhizi) | pest or weed control at 200 ppm [1] | pest or weed control at 200 ppm [2] | inhibition of growth at 20 ppm [3]

CON(Cc1ccc(-c2noc(C(F)(F)F)n2)s1)C(=O)C1(C)CC1 [Compound 1.15, N-methoxy-1-methyl-N-[[5-[5-(trifluoromethyl)-1,2,4-oxadiazol-3-yl]-2-thienyl]methyl]cyclopropanecarboxamide]
≥ 80%: pest or weed control at 200 ppm (Phakopsora pachyrhizi) | pest or weed control at 200 ppm [1] | pest or weed control at 200 ppm [2] | inhibition of growth at 20 ppm [3]

CON(Cc1ccc(-c2noc(C(F)(F)F)n2)s1)C(=O)C1(C)COC1 [Compound 1.16, N-methoxy-3-methyl-N-[[5-[5-(trifluoromethyl)-1,2,4-oxadiazol-3-yl]-2-thienyl]methyl]oxetane-3-carboxamide]
≥ 80%: pest or weed control at 200 ppm (Phakopsora pachyrhizi) | pest or weed control at 200 ppm [1] | pest or weed control at 200 ppm [2] | inhibition of growth at 20 ppm [3]

CON(Cc1ccc(-c2noc(C(F)(F)F)n2)s1)C(=O)C1CCCO1 (stereo not drawn) [Compound 1.17, N-methoxy-N-[[5-[5-(trifluoromethyl)-1,2,4-oxadiazol-3-yl]-2-thienyl]methyl]tetrahydrofuran-2-carboxamide]
≥ 80%: pest or weed control at 200 ppm (Phakopsora pachyrhizi) | pest or weed control at 200 ppm [1] | pest or weed control at 200 ppm [2] | inhibition of growth at 20 ppm [3]

CON(Cc1ccc(-c2noc(C(F)(F)F)n2)s1)C(=O)CC(F)(F)F [Compound 1.18, 3,3,3-trifluoro-N-methoxy-N-[[5-[5-(trifluoromethyl)-1,2,4-oxadiazol-3-yl]-2-thienyl]methyl]propanamide]
≥ 80%: pest or weed control at 200 ppm (Phakopsora pachyrhizi) | pest or weed control at 200 ppm [1] | pest or weed control at 200 ppm [2] | inhibition of growth at 20 ppm [3]

CCC(C)C(=O)N(Cc1ccc(-c2noc(C(F)(F)F)n2)s1)OC (stereo not drawn) [Compound 1.19, N-methoxy-2-methyl-N-[[5-[5-(trifluoromethyl)-1,2,4-oxadiazol-3-yl]-2-thienyl]methyl]butanamide]
≥ 80%: pest or weed control at 200 ppm (Phakopsora pachyrhizi) | pest or weed control at 200 ppm [1] | pest or weed control at 200 ppm [2] | inhibition of growth at 20 ppm [3]

CCCC(=O)N(Cc1ccc(-c2noc(C(F)(F)F)n2)s1)OC [Compound 1.21, N-methoxy-N-[[5-[5-(trifluoromethyl)-1,2,4-oxadiazol-3-yl]-2-thienyl]methyl]butanamide]
≥ 80%: pest or weed control at 200 ppm (Phakopsora pachyrhizi) | pest or weed control at 200 ppm [1] | pest or weed control at 200 ppm [2] | inhibition of growth at 20 ppm [3]

CON(Cc1ccc(-c2noc(C(F)(F)F)n2)s1)C(=O)CC1CC1 [Compound 1.22, 2-cyclopropyl-N-methoxy-N-[[5-[5-(trifluoromethyl)-1,2,4-oxadiazol-3-yl]-2-thienyl]methyl]acetamide]
≥ 80%: pest or weed control at 200 ppm (Phakopsora pachyrhizi) | pest or weed control at 200 ppm [1] | pest or weed control at 200 ppm [2] | inhibition of growth at 20 ppm [3]

COCCCC(=O)N(Cc1ccc(-c2noc(C(F)(F)F)n2)s1)OC [Compound 1.23, N,4-dimethoxy-N-[[5-[5-(trifluoromethyl)-1,2,4-oxadiazol-3-yl]-2-thienyl]methyl]butanamide]
≥ 80%: pest or weed control at 200 ppm (Phakopsora pachyrhizi) | pest or weed control at 200 ppm [1] | pest or weed control at 200 ppm [2] | inhibition of growth at 20 ppm [3]

CON(Cc1ccc(-c2noc(C(F)(F)F)n2)s1)C(=O)C(N)=O [Compound 1.24, N′-methoxy-N′-[[5-[5-(trifluoromethyl)-1,2,4-oxadiazol-3-yl]-2-thienyl]methyl]oxamide]
≥ 80%: pest or weed control at 200 ppm (Phakopsora pachyrhizi) | pest or weed control at 200 ppm [1] | pest or weed control at 200 ppm [2] | inhibition of growth at 20 ppm [3]

CON(Cc1ccc(-c2noc(C(F)(F)F)n2)s1)C(C)=O [Compound 1.25, N-methoxy-N-[[5-[5-(trifluoromethyl)-1,2,4-oxadiazol-3-yl]-2-thienyl]methyl]acetamide]
≥ 80%: pest or weed control at 200 ppm (Phakopsora pachyrhizi) | pest or weed control at 200 ppm [1] | pest or weed control at 200 ppm [2] | inhibition of growth at 20 ppm [3]

CON(C(=O)C1CC1)C(C)c1ccc(-c2noc(C(F)(F)F)n2)s1 (stereo not drawn) [Compound 1.48, N-methoxy-N-[1-[5-[5-(trifluoromethyl)-1,2,4-oxadiazol-3-yl]-2-thienyl]ethyl]cyclopropanecarboxamide]
≥ 80%: pest or weed control at 200 ppm (Phakopsora pachyrhizi) | pest or weed control at 200 ppm [1] | pest or weed control at 200 ppm [2] | inhibition of growth at 20 ppm [3]

CCNC(=O)N(Cc1ccc(-c2noc(C(F)(F)F)n2)s1)OC [Compound 1.51, 3-ethyl-1-methoxy-1-[[5-[5-(trifluoromethyl)-1,2,4-oxadiazol-3-yl]-2-thienyl]methyl]urea]
≥ 80%: pest or weed control at 200 ppm (Phakopsora pachyrhizi) | pest or weed control at 200 ppm [1] | pest or weed control at 200 ppm [2] | inhibition of growth at 20 ppm [3]

C=CCN(C)C(=O)N(Cc1ccc(-c2noc(C(F)(F)F)n2)s1)OC [Compound 1.52, 1-allyl-3-methoxy-1-methyl-3-[[5-[5-(trifluoromethyl)-1,2,4-oxadiazol-3-yl]-2-thienyl]methyl]urea]
≥ 80%: pest or weed control at 200 ppm (Phakopsora pachyrhizi) | pest or weed control at 200 ppm [1] | pest or weed control at 200 ppm [2] | inhibition of growth at 20 ppm [3]

COCCNC(=O)N(Cc1ccc(-c2noc(C(F)(F)F)n2)s1)OC [Compound 1.53, 1-methoxy-3-(2-methoxyethyl)-1-[[5-[5-(trifluoromethyl)-1,2,4-oxadiazol-3-yl]-2-thienyl]methyl]urea]
≥ 80%: pest or weed control at 200 ppm (Phakopsora pachyrhizi) | pest or weed control at 200 ppm [1] | pest or weed control at 200 ppm [2] | inhibition of growth at 20 ppm [3]

CCN(CC)C(=O)N(Cc1ccc(-c2noc(C(F)(F)F)n2)s1)OC [Compound 1.54, 1,1-diethyl-3-methoxy-3-[[5-[5-(trifluoromethyl)-1,2,4-oxadiazol-3-yl]-2-thienyl]methyl]urea]
≥ 80%: pest or weed control at 200 ppm (Phakopsora pachyrhizi) | pest or weed control at 200 ppm [1] | pest or weed control at 200 ppm [2] | inhibition of growth at 20 ppm [3]

CON(Cc1ccc(-c2noc(C(F)(F)F)n2)s1)C(=O)N1CCC2(CC2)C1 [Compound 1.58, N-methoxy-N-[[5-[5-(trifluoromethyl)-1,2,4-oxadiazol-3-yl]-2-thienyl]methyl]-5-azaspiro[2.4]heptane-5-carboxamide]
≥ 80%: pest or weed control at 200 ppm (Phakopsora pachyrhizi) | pest or weed control at 200 ppm [1] | pest or weed control at 200 ppm [2] | inhibition of growth at 20 ppm [3]

CC(C)(C)OC(=O)NCc1ccc(-c2noc(C(F)(F)F)n2)s1 [Compound 2.1, tert-butyl N-[[5-[5-(trifluoromethyl)-1,2,4-oxadiazol-3-yl]-2-thienyl]methyl]carbamate]
≥ 80%: pest or weed control at 200 ppm (Phakopsora pachyrhizi) | pest or weed control at 200 ppm [1] | pest or weed control at 200 ppm [2] | inhibition of growth at 20 ppm [3]
